Results published in PubChem BioAssay AID1963864 (Molecular Pharmacology Branch, DTP, NCI, 2024).

System: KRAS PDC multicell spheroid viability
Experiment: Anticancer human tumor 521955-158-R6-J3-PDC patient-derived pancreatic carcinoma cell line growth inhibition [KRAS2]
Conditions: for IC50: curve of first compound; for viability, T/C: stronger effect = lower value
How it was run: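 KRAS-mutant tumor cells were grown as spheroids with HUVEC endothelial cells and human MSCs as stroma. Targeted agents were tested alone and with KRAS pathway inhibitors. Doses started at or near clinical Cmax, or 10 microM, descending half-log.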

[1] = second compound 0.1 µM, first compound 0.000316 µM
[2] = second compound 0.1 µM, first compound 0.001 µM
[3] = second compound 0.1 µM, first compound 0.00316 µM
[4] = second compound 0.1 µM, first compound 0.01 µM
[5] = second compound 0.1 µM, first compound 0.0316 µM
[6] = second compound 0.1 µM, first compound 0.1 µM
[7] = second compound 0.316 µM, first compound 0.000316 µM
[8] = second compound 0.316 µM, first compound 0.001 µM
[9] = second compound 0.316 µM, first compound 0.00316 µM
[10] = second compound 0.316 µM, first compound 0.01 µM
[11] = second compound 0.316 µM, first compound 0.0316 µM
[12] = second compound 0.316 µM, first compound 0.1 µM
[13] = second compound 1 µM, first compound 0.000316 µM
[14] = second compound 1 µM, first compound 0.001 µM
[15] = second compound 1 µM, first compound 0.00316 µM
[16] = second compound 1 µM, first compound 0.01 µM
[17] = second compound 1 µM, first compound 0.0316 µM
[18] = second compound 1 µM, first compound 0.1 µM
[19] = second compound 3.16 µM, first compound 0.000316 µM
[20] = second compound 3.16 µM, first compound 0.001 µM
[21] = second compound 3.16 µM, first compound 0.00316 µM
[22] = second compound 3.16 µM, first compound 0.01 µM
[23] = second compound 3.16 µM, first compound 0.0316 µM
[24] = second compound 3.16 µM, first compound 0.1 µM
[25] = second compound 10 µM, first compound 0.0316 µM
[26] = second compound 10 µM, first compound 0.1 µM
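Note: drug exposure lasted seven days.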
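Throughout, for viability, T/C: 100% = DMSO vehicle wells and lower means fewer viable cells.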

Structure (SMILES): Cn1ncnc1[C@H]1c2n[nH]c(=O)c3cc(F)cc(c23)N[C@@H]1c1ccc(F)cc1 + CNCc1ccccc1-c1csc(C(C)Nc2nc(C)nc3cc(OC)c(OC)cc23)c1
- IC50 (second compound 0.1 µM): > 0.1 µM
- IC50 (second compound 0.316 µM): > 0.1 µM
- IC50 (second compound 1 µM): > 0.1 µM
- IC50 (second compound 3.16 µM): < 0.000316 µM
- IC50 (second compound 10 µM): < 0.000316 µM
- viability, T/C [1]: 96.3%
- viability, T/C [2]: 93.7%
- viability, T/C [3]: 85.5%
- viability, T/C [4]: 92.1%
- viability, T/C [5]: 85.9%
- viability, T/C [6]: 90.6%
- viability, T/C [7]: 89.1%
- viability, T/C [8]: 82.2%
- viability, T/C [9]: 91.1%
- viability, T/C [10]: 80%
- viability, T/C [11]: 80.5%
- viability, T/C [12]: 72.2%
- viability, T/C [13]: 68.3%
- viability, T/C [14]: 78.4%
- viability, T/C [15]: 72.2%
- viability, T/C [16]: 74.4%
- viability, T/C [17]: 78.4%
- viability, T/C [18]: 70.2%
- viability, T/C [19]: 0.28%
- viability, T/C [20]: 2.23%
- viability, T/C [21]: 0.7%
- viability, T/C [22]: 0.93%
- viability, T/C [23]: 1.22%
- viability, T/C [24]: 1.42%
- viability, T/C (second compound 10 µM, first compound 0.000316 µM): 0.15%
- viability, T/C (second compound 10 µM, first compound 0.001 µM): 0.17%
- viability, T/C (second compound 10 µM, first compound 0.00316 µM): 0.15%
- viability, T/C (second compound 10 µM, first compound 0.01 µM): 0.86%
- viability, T/C [25]: 0.21%
- viability, T/C [26]: 0.26%

Structure (SMILES): CC(C)NCC(C(=O)N1CCN(c2ncnc3c2C(C)CC3O)CC1)c1ccc(Cl)cc1 (stereo not given) + CC1OCC2(CCN(c3cnc(Sc4ccnc(N)c4Cl)c(N)n3)CC2)C1N
- IC50 (second compound 0.1 µM): > 10 µM
- IC50 (second compound 0.316 µM): > 10 µM
- IC50 (second compound 1 µM): > 10 µM
- IC50 (second compound 3.16 µM): 1.35 µM
- IC50 (second compound 10 µM): 0.643 µM
- viability, T/C [5]: 86.9%
- viability, T/C [6]: 77.1%
- viability, T/C (second compound 0.1 µM, first compound 0.316 µM): 68.8%
- viability, T/C (second compound 0.1 µM, first compound 1 µM): 68.7%
- viability, T/C (second compound 0.1 µM, first compound 3.16 µM): 61.7%
- viability, T/C (second compound 0.1 µM, first compound 10 µM): 56%
- viability, T/C [11]: 84.3%
- viability, T/C [12]: 71.4%
- viability, T/C (second compound 0.316 µM, first compound 0.316 µM): 61.1%
- viability, T/C (second compound 0.316 µM, first compound 1 µM): 63.5%
- viability, T/C (second compound 0.316 µM, first compound 3.16 µM): 60.2%
- viability, T/C (second compound 0.316 µM, first compound 10 µM): 48.9%
- viability, T/C [17]: 78.1%
- viability, T/C [18]: 74.6%
- viability, T/C (second compound 1 µM, first compound 0.316 µM): 60.7%
- viability, T/C (second compound 1 µM, first compound 1 µM): 54.7%
- viability, T/C (second compound 1 µM, first compound 3.16 µM): 50.9%
- viability, T/C (second compound 1 µM, first compound 10 µM): 51.7%
- viability, T/C [23]: 86.9%
- viability, T/C [24]: 78.7%
- viability, T/C (second compound 3.16 µM, first compound 0.316 µM): 59.7%
- viability, T/C (second compound 3.16 µM, first compound 1 µM): 53%
- viability, T/C (second compound 3.16 µM, first compound 3.16 µM): 47.5%
- viability, T/C (second compound 3.16 µM, first compound 10 µM): 43.3%
- viability, T/C [25]: 102%
- viability, T/C [26]: 73.8%
- viability, T/C (second compound 10 µM, first compound 0.316 µM): 56.7%
- viability, T/C (second compound 10 µM, first compound 1 µM): 43.9%
- viability, T/C (second compound 10 µM, first compound 3.16 µM): 44.2%
- viability, T/C (second compound 10 µM, first compound 10 µM): 34.1%

Structure (SMILES): CN(C)C/C=C/C(=O)Nc1cc2c(Nc3ccc(F)c(Cl)c3)ncnc2cc1O[C@H]1CCOC1 + C=CC(=O)N1CCN(c2nc(OCC3CCCN3C)nc3c2CCN(c2cccc4cccc(C)c24)C3)CC1CC#N
- IC50 (second compound 0.0316 µM): > 0.1 µM
- IC50 (second compound 0.1 µM): > 0.1 µM
- IC50 (second compound 0.316 µM): > 0.1 µM
- IC50 (second compound 1 µM): > 0.1 µM
- IC50 (second compound 3.16 µM): < 0.000316 µM
- viability, T/C (second compound 0.0316 µM, first compound 0.000316 µM): 108%
- viability, T/C (second compound 0.0316 µM, first compound 0.001 µM): 92.2%
- viability, T/C (second compound 0.0316 µM, first compound 0.00316 µM): 81.8%
- viability, T/C (second compound 0.0316 µM, first compound 0.01 µM): 72.4%
- viability, T/C (second compound 0.0316 µM, first compound 0.0316 µM): 66%
- viability, T/C (second compound 0.0316 µM, first compound 0.1 µM): 66.8%
- viability, T/C [1]: 97.2%
- viability, T/C [2]: 93.8%
- viability, T/C [3]: 89.6%
- viability, T/C [4]: 64.7%
- viability, T/C [5]: 72.4%
- viability, T/C [6]: 61.8%
- viability, T/C [7]: 99.9%
- viability, T/C [8]: 92.2%
- viability, T/C [9]: 91%
- viability, T/C [10]: 78.7%
- viability, T/C [11]: 68%
- viability, T/C [12]: 67.6%
- viability, T/C [13]: 91.9%
- viability, T/C [14]: 93.4%
- viability, T/C [15]: 81.3%
- viability, T/C [16]: 63.4%
- viability, T/C [17]: 64.1%
- viability, T/C [18]: 64.5%
- viability, T/C [19]: 48.5%
- viability, T/C [20]: 32.9%
- viability, T/C [21]: 15.2%
- viability, T/C [22]: 12.7%
- viability, T/C [23]: 12.8%
- viability, T/C [24]: 23.1%
